In patent US20230172914A1, “BIOMARKER-BASED THERAPEUTIC COMPOSITION” (WELLMARKER BIO CO., LTD., priority 2019, published 2023):

Key:
RON mutant (Δ160) = molecular target: T1, RON mutant (Δ160) (Homo sapiens, UniProt Q04912); experiment: Kinase assay for RON mutant Δ160 in transfected Colo320HSR (immunoprecipitation, Western blotting); format: cell-based; details: Colo320HSR transfected with RONΔ160, 2 hours of drug treatment
T1 construct: expressed in transfected cells; host or cells: Colo320HSR (RON-negative colon cancer cell line)
T1 sequence (Q04912 25-1294 isoform Q04912-7 limits assumed): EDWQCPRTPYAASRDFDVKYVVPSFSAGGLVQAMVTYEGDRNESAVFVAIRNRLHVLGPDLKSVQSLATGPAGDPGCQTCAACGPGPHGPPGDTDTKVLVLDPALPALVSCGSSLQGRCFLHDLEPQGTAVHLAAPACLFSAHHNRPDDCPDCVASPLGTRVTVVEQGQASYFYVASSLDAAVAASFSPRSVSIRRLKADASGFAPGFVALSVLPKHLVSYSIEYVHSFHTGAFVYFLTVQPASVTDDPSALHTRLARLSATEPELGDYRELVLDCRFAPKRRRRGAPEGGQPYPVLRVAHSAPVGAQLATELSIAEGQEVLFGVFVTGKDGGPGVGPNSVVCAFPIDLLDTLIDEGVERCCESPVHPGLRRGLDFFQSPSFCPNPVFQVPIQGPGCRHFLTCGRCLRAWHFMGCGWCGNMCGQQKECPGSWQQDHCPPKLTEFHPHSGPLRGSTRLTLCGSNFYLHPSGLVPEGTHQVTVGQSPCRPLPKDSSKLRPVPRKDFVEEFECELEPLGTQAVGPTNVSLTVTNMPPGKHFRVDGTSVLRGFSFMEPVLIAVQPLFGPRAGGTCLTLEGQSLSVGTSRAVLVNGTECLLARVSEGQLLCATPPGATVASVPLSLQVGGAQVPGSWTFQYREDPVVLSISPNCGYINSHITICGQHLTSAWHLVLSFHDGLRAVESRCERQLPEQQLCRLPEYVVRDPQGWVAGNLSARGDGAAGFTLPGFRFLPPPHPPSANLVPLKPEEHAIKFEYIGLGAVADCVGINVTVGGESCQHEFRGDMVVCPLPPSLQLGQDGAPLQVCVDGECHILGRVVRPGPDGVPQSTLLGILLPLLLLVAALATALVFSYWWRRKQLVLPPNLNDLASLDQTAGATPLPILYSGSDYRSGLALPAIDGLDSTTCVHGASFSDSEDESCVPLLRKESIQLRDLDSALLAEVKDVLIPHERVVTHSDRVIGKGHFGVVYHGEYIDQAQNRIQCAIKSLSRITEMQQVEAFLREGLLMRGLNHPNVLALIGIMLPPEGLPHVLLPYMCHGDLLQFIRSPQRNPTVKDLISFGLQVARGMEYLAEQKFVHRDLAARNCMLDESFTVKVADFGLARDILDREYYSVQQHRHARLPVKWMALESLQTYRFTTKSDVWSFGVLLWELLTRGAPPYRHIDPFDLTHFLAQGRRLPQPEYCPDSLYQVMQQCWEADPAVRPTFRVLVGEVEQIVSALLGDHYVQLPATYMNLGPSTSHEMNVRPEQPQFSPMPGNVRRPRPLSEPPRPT
T1 sequence (Q04912 25-304 partner limits assumed): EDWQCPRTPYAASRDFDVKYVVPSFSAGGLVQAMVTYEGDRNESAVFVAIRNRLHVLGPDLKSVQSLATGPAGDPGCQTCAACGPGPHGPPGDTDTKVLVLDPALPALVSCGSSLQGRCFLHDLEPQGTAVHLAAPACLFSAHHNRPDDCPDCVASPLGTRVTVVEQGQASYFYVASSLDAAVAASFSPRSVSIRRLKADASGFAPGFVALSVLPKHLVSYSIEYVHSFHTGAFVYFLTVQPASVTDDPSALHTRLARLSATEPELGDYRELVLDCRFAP
Protocol: (§1) As a way capable of replacing RON mutant, each of the mutants (Δ160, Δ155) was transfected into Colo320HSR, a RON-negative cell line, and the cell line was subjected to treatment with Example 18 or Comparative Example 1 at respective concentrations. Then, it was checked, through immunoprecipitation and Western blotting, whether expression of active RON decreases. The detailed method is as follows. The RON-negative Colo320SHR colon cancer cell line was transfected with 12 ug of each of RONΔ160 and RON Δ155 using lipofectamine 2000 (Invitrogen, cat #11668-019). For the same transfection efficiency, after 24 hours, the transformed strains were dispensed into a 60-mm dish. 48 hours after transfection, treatment with drugs of Comparative Example 1 and Example 18 was performed, respectively, in a dose-dependent manner. After 2 hours of drug treatment, the cells were collected and washed with PBS. Then, the washed cells were lysed with RIPA Lysis Buffer (T&I, cat #BRI-9001).
(§2) Protein concentrations were quantified using the Bradford (BioRad, cat #5000205) method. […]
(§3) Electrophoresis was performed using SDS-PAGE, and then proteins were transferred to PVDF membrane. […] The developed film was analyzed with densitometry using Image-J, and then IC50 was calculated using Graphpad Prism (GraphPad Software, Inc.).

RON mutant (Δ155) = experiment: Kinase assay for RON mutant Δ155 in transfected Colo320HSR (immunoprecipitation, Western blotting); format: cell-based; details: Colo320HSR transfected with RONΔ155, 2 hours of drug treatment
Protocol: as §1, §2, §3

[1] = system: colon cancer patient tissue (active RON/RON mutant #1: Δ160); experiment: Efficacy in animal model transplanted with colon cancer patient tissue, 30 mpk; format: in vivo; details: 30 mpk for 4 weeks
Protocol: Example 18 and Comparative Example 1 were administered to an animal model transplanted with the same patient tissue (active RON/RON mutant #1: Δ160) cells as in the animal model transplanted with colon cancer patient tissue tumor cells at 30 mpk for 4 weeks. […] The lower pictures of FIG. 21 show tumors extracted from representative individuals of the respective groups.

KM12C cell line tumor = experiment: Effective dose concentration in animal model transplanted with KM12C; format: in vivo, BALB/c nude mice; details: once a day for 2 weeks
Protocol: 5-Week-old female BALB/c nude mice were purchased and acclimatized for 1 week. Then, human-derived colon cancer cell line KM12C (1.5×10^6 cells/mice) was diluted in PBS, and injected subcutaneously (100 μl) into the right dorsal side of the mice. Example 18 was orally administered at respective doses when the tumor reached a size of about 100 mm^3. The drug was administered once a day for 2 weeks, and tumor size and body weight were measured twice a week to perform comparative analysis. After completion of the drug administration, the experimental animals were euthanized, and then the tumors were extracted and weighed to perform comparative analysis.

KM12C (RONΔ160) [2] = experiment: Cell death-inducing ability, trypan blue exclusion, KM12C; format: cell-based, human; details: 48 hours
Protocol: The cell death-inducing ability of Example 18 and Comparative Example 1 was measured in KM12C with RON mutant (Δ160), a cetuximab-resistant cell line, and Colo320HSR cell line, a cell line not expressing RON. The two colon cancer cell lines were seeded, respectively, onto 60-mm plates at 2×10^5 cells. Then, after 24 hours, while performing medium exchange, the cells were subjected to treatment with the sample compounds at respective concentrations (1 μM, 5 μM) for 48 hours. After 48 hours, the cells and cell suspensions were collected (1,500 rpm, 3 minutes), and live cells and dead cells were quantitated (n=2) through trypan blue (15250-061, Gibco) exclusion assay.

[3] = system: KM12C cell line carrying RON mutant (Δ160); experiment: Action mechanism in KM12C, Western blotting of related proteins; format: cell-based, human; details: 1 μM, 5 μM, 48 hours
Protocol: KM12C cell line was seeded at 5×10^5 cells onto a 100-mm plate. Then, after 24 hours, the cells were subjected to treatment with Example 18 at respective concentrations (1 μM, 5 μM) for 48 hours. After 48 hours, the cells and cell suspensions were collected (1,500 rpm, 3 minutes), and changes in expression of related proteins were checked with Western blotting. RIPA Lysis Buffer (T&I) was added to the respective cells so as to achieve lysis. Then, BCA kit (Pierce) was used to quantify proteins. Then, the proteins were loaded onto 8% SDS-polyacrylamide, and electrophoresis was performed at 125 V.
Then, blocking was performed with 5% non-fat skim milk-TBST solution for 1 hour. Subsequently, the proteins were reacted with primary antibodies, which were diluted 1:1,000 in 5% non-fat skim milk-TBST solution, at 4° C. for 24 hours or 48 hours. Then, washing with TBST was performed three times. The resultant was reacted with anti-rabbit and anti-mouse IgG conjugated HRP secondary antibodies, which were diluted at 1:1,000, at room temperature for 2 hours. Then, washing with TBST was performed three times. Subsequently, the membrane was treated with the ECL solution (GE Healthcare), and developed by exposure to an X-ray film. Then, the bands were checked.

KM12C (RONΔ160) [4] = experiment: MTS assay KM12C (Experimental Example 6); format: cell-based; details: Homo sapiens, 72 hours
Protocol: In MTS assay for Example 18 and Comparative Example 1, KM12C cell line was seeded at 1,000 cells per well into 96-well plates. After 24 hours, the cells were treated with various concentrations (0.000001 uM to 10 uM) of Example 18 and Comparative Example 1 in 100 ul of 10% FBS-MEM medium (Welgene) per well. Subsequently, the cells were incubated for 72 hours. Then, 20 μl of MTS solution (Promega) was added thereto, and incubation was performed for 2 hours. Then, the absorbance was measured at 490 nm. The IC50 values for Example 18 and Comparative Example 1 were calculated using GraphPad Prism™ 5 to investigate cytotoxicity.

Compound: CCOc1ccn(-c2ccc(F)cc2)c(=O)c1C(=O)Nc1ccc(Oc2ccnc3cc(-c4ccc(CN5CCOCC5)cn4)sc23)c(F)c1.Cl [Example 18, 4-ethoxy-N-[3-fluoro-4-({2-[5-(morpholinomethyl)pyridin-2-yl]thieno[3,2-b]pyridine-7-yl}oxy)phenyl]-1-(4-fluorophenyl)-2-oxo-1,2-dihydropyridine-3-carboxamide hydrochloride]
- inhibition of RON activity (degree of active RON) (RON mutant (Δ160)): high inhibition efficacy as compared with Comparative Example 1
- inhibition of RON activity (degree of active RON) (RON mutant (Δ155)): high inhibition efficacy as compared with Comparative Example 1
- tumor growth inhibition efficacy [1]: about 73%
- tumor growth (KM12C cell line tumor; oral at respective doses): inhibited in a concentration-dependent manner
- effective dose concentration (KM12C cell line tumor; oral): 5.214 mpk
- Cell death, KM12C (RONΔ160) (KM12C (RONΔ160) [2]; 1 μM): 29.0
- Cell death, KM12C (RONΔ160) (KM12C (RONΔ160) [2]; 5 μM): 35.2
- active RON (Western blotting) [3]: decreases
- p-ERK, p-Src, p-Akt, and p-Gab1 (Western blotting) [3]: decrease
- IC50 (KM12C (RONΔ160) [4]): 6.9 nM
